Data from patent publication US11046854B2, “Slippery liquid-infused porous surfaces that prevent microbial surface fouling” (Wisconsin Alumni Research Foundation, priority 2016, dated 2021).

Experiments:
Type in all cases: physicochemical
[1] = Release of QSIs and DMABI from SLIPS in PBS at 37° C. (UV/vis)
Description: Small Molecule Loading, Oil Infusion, and Characterization of Release. […] Immediately prior to use, loaded films were infused with silicone oil (for melting point and boiling point apparatuses; Sigma-Aldrich) by placing a 2.25 μL droplet of oil on each side and allowing the oil to spread over the entire surface. Excess oil was removed from the surface using tissue paper. […] At designated time points, substrates were removed from the incubation buffer and placed in fresh buffer before returning to the incubator. The release of the loaded agents into the incubation buffer was characterized using a UV/vis spectrophotometer.
Characterization of the release of QSIs and biofilm inhibitors from SLIPS.

[2] = Water droplet sliding velocity on compound-loaded SLIPS; conditions: 10 μL water droplets, SLIPS loaded with the compound, tilt angle 10°; mean and standard error of six replicates
From the text: All QSI-loaded SLIPS used in this study contained 240 nmol of compound per substrate and all DMABI-loaded SLIPS contained 300 nmol of compound.

[3] = Solubility of triclosan in silicone oil

loaded compound released ([1]; after the first 24 hours) | additional compound released ([1]; over the next 150 hours) | Slide Velocity [2] | solubility in silicone oil [3] | SMILES
approximately 40% | approximately 40% | 7.4 ± 0.2 mm/s | – | Cc1cc2nc(N)[nH]c2cc1C [DMABI, Dimethyl-2-aminobenzamidazole]
– | – | – | soluble in silicone oil | Oc1cc(Cl)ccc1Oc1ccc(Cl)cc1Cl [Triclosan, 5-chloro-2-(2,4-dichlorophenoxy)phenol]
